In PubChem BioAssay (NCI):
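A five-concentration, 48-hour dose response in 96-well plates underlies each endpoint, interpolated linearly between surrounding concentrations. GI50 is the concentration that inhibits growth by half. TGI is the concentration that stops growth completely.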

What was measured:
Assay in all cases: NCI tumour cell line growth inhibition, 48 h
[1] = tested on: MOLT-4 leukemia
[2] = tested on: PC-3 prostate
[3] = tested on: IGROV1 ovarian
[4] = tested on: BT-549 breast
[5] = tested on: MCF7 breast
[6] = tested on: CCRF-CEM leukemia
[7] = tested on: KM12 colon
[8] = tested on: SF-539 CNS
[9] = tested on: MDA-MB-435
[10] = tested on: SK-MEL-28 melanoma
[11] = tested on: A549 NSCLC
[12] = tested on: OVCAR-4 ovarian
[13] = tested on: TK-10 renal
[14] = tested on: MDA-MB-231 breast
[15] = tested on: HT29 colon
[16] = tested on: K-562 leukemia
[17] = tested on: HOP-92 NSCLC
[18] = tested on: SW-620 colon
[19] = tested on: RPMI-8226 leukemia
[20] = tested on: OVCAR-3 ovarian
[21] = tested on: NCI-H23 lung
[22] = tested on: SK-MEL-2 melanoma
[23] = tested on: SNB-19 CNS
[24] = tested on: U251 CNS
[25] = tested on: EKVX NSCLC
[26] = tested on: NCI-H522 lung
[27] = tested on: SN12C renal
[28] = tested on: HCT-116 colon
[29] = tested on: LOX IMVI melanoma
[30] = tested on: UACC-62 melanoma
[31] = tested on: DU-145 prostate
[32] = tested on: HS 578T breast
[33] = tested on: T-47D breast
[34] = tested on: SF-295 CNS
[35] = tested on: UO-31 renal
[36] = tested on: COLO 205 colon
[37] = tested on: ACHN renal
[38] = tested on: A498 renal
[39] = tested on: SK-OV-3 ovarian
[40] = tested on: NCI-H460 lung
[41] = tested on: SR leukemia
[42] = tested on: OVCAR-5 ovarian
[43] = tested on: SF-268 CNS
[44] = tested on: HCT-15 colon
[45] = tested on: CAKI-1 renal
[46] = tested on: OVCAR-8 ovarian
[47] = tested on: UACC-257 melanoma
[48] = tested on: SK-MEL-5 melanoma
[49] = tested on: HOP-62 NSCLC
[50] = tested on: M14 melanoma
[51] = tested on: NCI-H226 lung
[52] = tested on: MALME-3M melanoma
[53] = tested on: HCC-2998 colon
[54] = tested on: 786-0 renal
[55] = tested on: SNB-75 CNS
[56] = tested on: HL-60(TB) leukemia
[57] = tested on: RXF 393 renal

c1ccc(C(NC2CCCCC2NCCNC2CCCCC2NC(c2ccccc2)(c2ccccc2)c2ccccc2)(c2ccccc2)c2ccccc2)cc1 (configuration not stated)
TGI [1]: > 100000 nM
TGI [2]: > 100000 nM
TGI [3]: > 100000 nM
TGI [4]: 54100 nM
TGI [5]: 42100 nM
TGI [6]: > 100000 nM
TGI [7]: > 100000 nM
TGI [8]: > 100000 nM
TGI [9]: 32700 nM
TGI [10]: > 100000 nM
TGI [11]: > 100000 nM
TGI [12]: > 100000 nM
TGI [13]: > 100000 nM
TGI [14]: > 100000 nM
TGI [15]: > 100000 nM
TGI [16]: > 100000 nM
TGI [17]: 33700 nM
TGI [18]: > 100000 nM
TGI [19]: > 100000 nM
TGI [20]: > 100000 nM
TGI [21]: > 100000 nM
TGI [22]: > 100000 nM
TGI [23]: > 100000 nM
TGI [24]: 33900 nM
TGI [25]: > 100000 nM
TGI [26]: 39500 nM
TGI [27]: > 100000 nM
TGI [28]: 53600 nM
TGI [29]: 47700 nM
TGI [30]: > 100000 nM
TGI [31]: > 100000 nM
TGI [32]: 45300 nM
TGI [33]: > 100000 nM
TGI [34]: > 100000 nM
TGI [35]: 71200 nM
TGI [36]: > 100000 nM
TGI [37]: > 100000 nM
TGI [38]: 65500 nM
TGI [39]: > 100000 nM
TGI [40]: > 100000 nM
TGI [41]: > 100000 nM
TGI [42]: > 100000 nM
TGI [43]: > 100000 nM
TGI [44]: > 100000 nM
TGI [45]: > 100000 nM
TGI [46]: > 100000 nM
TGI [47]: > 100000 nM
TGI [48]: > 100000 nM
TGI [49]: > 100000 nM

Cc1cc(N(CCNc2ccnc3cc(Cl)ccc23)Cc2cccs2)nc(Cl)n1
GI50 [1]: 2480 nM
TGI [1]: 5570 nM
GI50 [2]: 1690 nM
TGI [2]: 3940 nM
GI50 [3]: 1640 nM
TGI [3]: 3280 nM
GI50 [50]: 1540 nM
TGI [50]: 3190 nM
GI50 [4]: 1870 nM
TGI [4]: 3940 nM
GI50 [51]: 1830 nM
TGI [51]: 3830 nM
GI50 [5]: 1530 nM
TGI [5]: 3130 nM
GI50 [6]: 2070 nM
TGI [6]: 5410 nM
GI50 [7]: 1690 nM
TGI [7]: 3290 nM
GI50 [8]: 1830 nM
TGI [8]: 3290 nM
GI50 [9]: 1560 nM
TGI [9]: 3050 nM
GI50 [10]: 1610 nM
TGI [10]: 3180 nM
GI50 [11]: 1430 nM
TGI [11]: 4500 nM
GI50 [12]: 1390 nM
TGI [12]: 2940 nM
GI50 [52]: 1620 nM
TGI [52]: 3170 nM
GI50 [13]: 1620 nM
TGI [13]: 2990 nM
GI50 [14]: 1490 nM
TGI [14]: 3060 nM
GI50 [15]: 1450 nM
TGI [15]: 3100 nM
GI50 [53]: 1740 nM
TGI [53]: 3400 nM
GI50 [16]: 1020 nM
TGI [16]: 3470 nM
GI50 [17]: 1160 nM
TGI [17]: 2610 nM
GI50 [18]: 1400 nM
TGI [18]: 3000 nM
GI50 [19]: 1970 nM
TGI [19]: 4550 nM
GI50 [20]: 1430 nM
TGI [20]: 2830 nM
GI50 [54]: 429 nM
TGI [54]: 1630 nM
GI50 [22]: 1840 nM
TGI [22]: 3540 nM
GI50 [23]: 2110 nM
TGI [23]: 5620 nM
GI50 [24]: 893 nM
TGI [24]: 2280 nM
GI50 [25]: 2080 nM
TGI [25]: 7380 nM
GI50 [26]: 1440 nM
TGI [26]: 3550 nM
GI50 [27]: 1580 nM
TGI [27]: 3190 nM
GI50 [28]: 526 nM
TGI [28]: 2000 nM
GI50 [29]: 1470 nM
TGI [29]: 2890 nM
GI50 [30]: 1690 nM
TGI [30]: 3190 nM
GI50 [32]: 2100 nM
TGI [32]: 4680 nM
GI50 [33]: 1120 nM
TGI [33]: 2880 nM
GI50 [34]: 1320 nM
TGI [34]: 2770 nM
GI50 [35]: 1300 nM
TGI [35]: 2600 nM
GI50 [36]: 1720 nM
TGI [36]: 3540 nM
GI50 [37]: 1440 nM
TGI [37]: 2750 nM
GI50 [38]: 1680 nM
TGI [38]: 4150 nM
GI50 [39]: 1800 nM
TGI [39]: 3240 nM
GI50 [40]: 1130 nM
TGI [40]: 2580 nM
GI50 [41]: 1020 nM
TGI [41]: 4020 nM
GI50 [55]: 1500 nM
TGI [55]: 2900 nM
GI50 [56]: 1990 nM
TGI [56]: 3840 nM
GI50 [42]: 1640 nM
TGI [42]: 3530 nM
GI50 [43]: 1830 nM
TGI [43]: 4040 nM
GI50 [44]: 1490 nM
TGI [44]: 2990 nM
GI50 [46]: 2210 nM
TGI [46]: 5330 nM
GI50 [57]: 1450 nM
TGI [57]: 2920 nM
GI50 [47]: 1840 nM
TGI [47]: 3560 nM
GI50 [48]: 1740 nM
TGI [48]: 3170 nM
GI50 [49]: 1650 nM
TGI [49]: 3650 nM
